Laboratory results published in patent publication US20060167276A1, “Clausenamide c5-hydroxyl derivatives and n-substituted derivatives, processes for their preparation, its composition and use” (priority 2002, published 2006).

Experiments:
[1] = tested on: rat hippocampus; assay: LTP / synaptic transmission in rat hippocampus (population spike amplitude, dentate gyrus); assay type: in vivo; settings: for Relative PS (PSA %): lateral ventricle, prior administration = 100; for effects on synaptic transmission: P<0.05 vs. control, n=5
From the text: Male adult SD Rats (5 per group) were anesthetized with 20% (w/v) urethane carbamate (1.0 g·kg^−1, ip) and fixed in a stereotaxic head holder. According to the reference of Pellegrino stereotaxic spectrum of rat, recording electrodes (stainless steel needle of 0.2 mm diameter were insulted except for 0.2 mm tip) were placed in the dentate gyrus granule cell layer. The stimulating electrodes (two stainless steel needles of 0.15 mm diameter coated with Teflon except for the 0.2 mm tip, and the distance between two needles was 0.5 mm) were planted between the fibre of perforant path (PP) in rat. Continuous pulse was provided by electronic stimulator, and delivered to PP through stimulus isolator and stimulating electrodes. Electrode depth was then adjusted until a typical excitatory postsynaptic potential (EPSP) was observed. Electric current was magnified by amplifier and collected by computer, then processed by DataWave software. The stimulus intensity was adjusted to produce population spike (PS) with a slope that was ≈50% of the maximum. Single-pulse test stimuli were at an interval of 30 sec during the experiment. Population spike amplitude (PSA) was recorded and the relatively percent of PSA was calculated according to the formula (PSA/basic value).

[2] = tested on: C17-2 mouse brain neural stem cells; assay: Cell proliferation of mouse brain neural stem cells (MTT, OD 490 nm); assay type: cell-based; settings: for Cell proliferation %: control group = 100%; for promotion effects on cell proliferation of mouse brain neural stem cells: at doses of 0.1 μM and 1 μM
Experimental: C17-2 mouse brain neural stem cells (C17-2 cells) were continuously cultured in 1640 medium with 10% horse serum and 10% fetal bovine serum at 5% CO2 and 37° C., dissociated to single cell suspension by 0.1% trypsin solution, centrifuged at 1,000 rpm×5 min and rinsed with medium. The cells were seeded in a 96-well plate, 1×10^3 cells per well, 3 well per group, continuously cultured. After 24 hours, the test compounds were added, doses of each of the C5-hydroxyl substituted clausenamides and N-substituted clausenamide derivatives were 0.1 μM, 1 μM and 10 μM respectively. The growth situation of the cells was observed under a microscope, once daily. At the 4th day, media in each well were pipetted, phosphate buffer solution containing MTT was added. 4 Hours later, the fluid was discarded, and a DMSO solution was added. The cells were incubated at 37° C. for 10 min under shaken. OD values on 490 nm of each well were detected. Set the growth rate of the control group as 100%, and the growth rates of each dose were given by comparison with the control group and t-tested.

[3] = dose 10^−5 M, MTT at 4th day, OD 490 nm
[4] = dose 10^−6 M, MTT at 4th day, OD 490 nm
[5] = dose 10^−7 M, MTT at 4th day, OD 490 nm

Compound | Relative PS (PSA %) ([1]; 15 min after administration) | Relative PS (PSA %) ([1]; 30 min after administration) | Relative PS (PSA %) ([1]; 45 min after administration) | Relative PS (PSA %) ([1]; 60 min after administration) | Result (OD value) [2, 3] | Cell proliferation % ([2]; dose 10^−5 M) | Result (OD value) [2, 4] | Cell proliferation % ([2]; dose 10^−6 M) | Result (OD value) [2, 5] | Cell proliferation % ([2]; dose 10^−7 M) | effects on synaptic transmission [1] | effects on cell proliferation of mouse brain neural stem cells (conclusion) [2] | promotion effects on cell proliferation of mouse brain neural stem cells [2] | Result (OD value) ([2]; positive control, dose 5 mg/L) | Cell proliferation % ([2]; positive control, dose 5 mg/L)
NC(=O)CN1C(=O)C(O)C(c2ccccc2)C1C(O)c1ccccc1 (racemic) [(±)III1, N-(aminocarbonyl-methylene)-norclausenamide] | 85.24 ± 17.41% | 79.82 ± 22.33% | 96.00 ± 19.78% | 117.37 ± 13.49% | 0.104 ± 0.009 | 75.91% | 0.205 ± 0.006 | 149.64% | 0.240 ± 0.017 | 175.18% |  |  |  |  | 
O=C(O)CN1C(=O)C(O)C(c2ccccc2)C1C(O)c1ccccc1 (racemic) [(±)III2] | 99.41 ± 9.27% | 117.34 ± 14.74% | 140.2 ± 10.96 % | 153.36 ± 13.23 % | 0.100 ± 0.018 | 72.99% | 0.175 ± 0.006 | 127.74% | 0.218 ± 0.012 | 159.12% |  |  |  |  | 
CC(=O)OCN1C(=O)C(O)C(c2ccccc2)C1C(O)c1ccccc1 (racemic) [(±)III3, N-acetoxymethylene-norclausenamide] |  |  |  |  |  |  |  |  |  |  | significantly upstanding effects |  |  |  | 
Cc1cccc(C)c1NC(=O)CN1C(=O)C(O)C(c2ccccc2)C1C(O)c1ccccc1 (racemic) [(±)III5] | 87.51 ± 19.57% | 97.43 ± 32.15% | 111.47 ± 46.02% | 137.15 ± 57.17% | 0.171 ± 0.035 | 124.82% | 0.227 ± 0.011 | 165.69% | 0.304 ± 0.051 | 221.90% |  | significant effects | significant promotion effects |  | 
O=C1C(O)C(c2ccccc2)C(C(O)c2ccccc2)N1Cc1ccccc1 (racemic) [(±)III8] | 67.75 ± 26.84% | 68.48 ± 21.15% | 79.25 ± 16.62% | 98.97 ± 14.26% | 0.096 ± 0.022 | 70.07% | 0.144 ± 0.038 | 105.11% | 0.221 ± 0.043 | 161.31% |  |  |  |  | 
COc1ccc(CN2C(=O)C(O)C(c3ccccc3)C2C(O)c2ccccc2)cc1 (racemic) [(±)III9] | 115.6 ± 17.94% | 107.18 ± 20.09% | 103.77 ± 15.36% | 112.72 ± 8.95% | 0.120 ± 0.027 | 87.59% | 0.138 ± 0.012 | 100.73% | 0.212 ± 0.011 | 154.74% |  |  |  |  | 
CN1C(=O)C(O)C(c2ccccc2)C1=Cc1ccccc1 (single isomer, unassigned) [(−)Δ^5,6-I, (−)-Δ^5,6-clausenamide] | 123.37 ± 14.80% | 138.79 ± 10.94 % | 158.89 ± 23.04 % | 181.50 ± 35.88 % | 0.076 ± 0.016 | 55.47% | 0.165 ± 0.011 | 120.44% | 0.246 ± 0.005 | 179.56% | significantly upstanding effects |  |  |  | 
CC(=O)OCN1C(=O)C(O)C(c2ccccc2)C1C(O)c1ccccc1 (single isomer, unassigned; (-)) [(−)III3, N-acetoxymethylene-norclausenamide] | 90.33 ± 16.11% | 100.15 ± 7.48% | 118.33 ± 25.07% | 141.37 ± 30.83% | 0.061 ± 0.007 | 44.53% | 0.147 ± 0.021 | 107.30% | 0.217 ± 0.024 | 158.39% |  |  |  |  | 
CN1C(=O)[C@@H](O)[C@H](c2ccccc2)[C@]1(O)[C@H](O)c1ccccc1 [(+)II1, (+)-(3S,4S,5S,6R)-5-hydroxy-clausenamide] | 144.86 ± 49.53% | 168.02 ± 49.16% | 194.32 ± 56.65 % | 233.24 ± 55.62 % | 0.093 ± 0.007 | 67.88% | 0.264 ± 0.036 | 192.70% | 0.250 ± 0.016 | 182.48% | significantly upstanding effects |  |  |  | 
CN1C(=O)[C@@H](O)[C@H](c2ccccc2)[C@@]1(O)[C@@H](O)c1ccccc1 [(+)II2, (+)-(3S,4S,5R,6S)-5-hydroxy-clausenamide] | 81.48 ± 6.13% | 77.33 ± 8.93% | 82.56 ± 1.87% | 99.92 ± 6.26% | 0.076 ± 0.008 | 55.47% | 0.220 ± 0.023 | 160.58% | 0.175 ± 0.059 | 127.74% |  |  |  |  | 
CN1C(=O)[C@H](O)[C@@H](c2ccccc2)[C@@]1(O)[C@H](O)c1ccccc1 [(+)II3, (+)-(3R,4R,5R,6R)-5-hydroxy-clausenamide] | 91.74 ± 17.21% | 117.87 ± 14.93% | 161.14 ± 13.94 % | 188.03 ± 5.28 % | 0.131 ± 0.009 | 95.62% | 0.199 ± 0.024 | 145.26% | 0.253 ± 0.020 | 184.67% | significantly upstanding effects | significant effects | significant promotion effects |  | 
CC(=O)O[C@@H]1C(=O)N(C)[C@@](O)([C@H](O)c2ccccc2)[C@H]1c1ccccc1 [(−)-3-O-AC-II1, (−)-(3S,4S,5S,6R)-3-O-acetyl-5-hydroxy-clausenamide] | 78.91 ± 13.90% | 83.73 ± 13.59% | 94.60 ± 8.87% | 102.66 ± 2.88% | 0.063 ± 0.014 | 45.99% | 0.072 ± 0.006 | 52.55% | 0.179 ± 0.004 | 130.66% |  |  |  |  | 
CN1C(=O)[C@H](O)[C@@H](c2ccccc2)[C@@]1(O)[C@@H](O)c1ccccc1 [(−)II1, (−)-(3R,4R,5R,6S)-5-hydroxy-clausenamide] |  |  |  |  | 0.126 ± 0.016 | 91.97% | 0.236 ± 0.049 | 172.26% | 0.256 ± 0.020 | 186.86% |  | significant effects | significant promotion effects |  | 
CN1C(=O)[C@H](O)[C@@H](c2ccccc2)[C@]1(O)[C@H](O)c1ccccc1 [(−)II2, (−)-(3R,4R,5S,6R)-5-hydroxy-clausenamide] | 110.55 ± 7.27% | 103.09 ± 10.12% | 94.49 ± 10.53% | 88.40 ± 14.42% | 0.156 ± 0.095 | 113.87% | 0.163 ± 0.038 | 118.98% | 0.233 ± 0.033 | 170.07% |  |  |  |  | 
fibroblast growth factor [FGF, reference compound] |  |  |  |  |  |  |  |  |  |  |  |  |  | 0.340 ± 0.035 | 248.17%
